Patent US9938292B2 (GUANGDONG ZHONGSHENG PHARMACEUTICAL CO., LTD, priority 2014, dated 2018)

What follows are compounds tested on Hedgehog signaling pathway (assay: Gli-Luc luciferase reporter gene assay in C3H10T1/2/Gli-Luc cells under Shh-N stimulation). Settings: 24 h, luciferase RLU, read-out: biological activity: IC50 of the inhibitory activities of compounds on the hedgehog pathway.
Assay type: cell-based
Outline: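 C3H10T1/2 cells stably carrying a Gli-responsive luciferase reporter were stimulated with 30 nM Shh-N conditioned medium plus compound (7-point dilutions, duplicate) for 24 h at 37 °C. Luciferase luminescence read from lysates; IC50 by sigmoidal fit of RLU versus log concentration.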

| IC50 [µM] | SMILES |
| --- | --- |
| ≤ 0.05 | CCC(=O)N1[C@H](C)CN(c2ccc(NC(=O)c3cnc4c(-c5ccc(C#N)cc5)cccc4c3C3CC3)cn2)C[C@@H]1C [Embodiment 246] |

Same assay, conditions: Mus musculus, C3H 10T1/2, 24 h, luciferase RLU, read-out: biological activity: IC50 of the inhibitory activities of compounds on the hedgehog pathway

| IC50 [µM] | SMILES |
| --- | --- |
| ≤ 0.05 | CC(C)(O)c1ccc(N2CCN(c3cnc4c(-c5ccc(C#N)cc5)cccc4c3C(F)(F)F)CC2)nc1 [Embodiment 218, 4-(3-(4-(5-(2-hydroxypropan-2-yl)pyridin-2-yl)piperazin-1-yl)-4-(trifluoromethyl)quinolin-8-yl)benzonitrile] |
| ≤ 0.05 | CC1CN(c2cnc3c(-c4ccc(C#N)cc4)cccc3c2Br)CCN1c1ccc(C(C)(C)O)cn1 (stereo not drawn) [Embodiment 219, 4-(4-bromo-3-(4-(5-(2-hydroxypropan-2-yl)pyridin-2-yl)-3-methylpiperazin-1-yl)quinolin-8-yl)benzonitrile] |
| ≤ 0.05 | COc1c(N2CCN(c3ccc(C(C)(C)O)cn3)CC2)cnc2c(-c3ccc(C#N)cc3)cccc12 [Embodiment 220, 4-(3-(4-(5-(2-hydroxypropan-2-yl)pyridin-2-yl)piperazin-1-yl)-4-methoxyquinolin-8-yl)benzonitrile] |
| ≤ 0.05 | COc1c(N2CCN(c3cnc(C(C)(C)O)cn3)CC2)cnc2c(-c3ccc(C#N)cc3)cccc12 [Embodiment 221] |
| ≤ 0.05 | COc1c(N2CCN(c3ccc(C(C)(C)O)c(C(F)(F)F)n3)CC2)cnc2c(-c3ccc(C#N)cc3)cccc12 [Embodiment 222] |
| 0.1 to 0.5 | COc1c(N2CCN(c3ncc(C(C)(C)O)cc3C(F)(F)F)CC2)cnc2c(-c3ccc(C#N)cc3)cccc12 [Embodiment 223] |
| ≤ 0.05 | COc1c(N2CCN(c3cnc(C(C)(C)O)cn3)C(C)C2)cnc2c(-c3ccc(C#N)cc3)cccc12 (stereo not drawn) [Embodiment 225] |
| ≤ 0.05 | COc1c(N2CCC(N3C[C@@H](C)O[C@@H](C)C3)CC2)cnc2c(-c3ccc(C#N)cc3)cccc12 [Embodiment 227, 4-(3-(4-(2,6-dimethylmorpholino)piperidin-1-yl)-4-methoxyquinolin-8-yl) benzonitrile] |
| 0.1 to 0.5 | COc1c(N2CCC(N3C[C@@H](C)O[C@@H](C)C3)C2)cnc2c(-c3ccc(C#N)cc3)cccc12 (stereo partly drawn) [Embodiment 229, 4-(3-(3-(2,6-dimethylmorpholino)pyrrolidin-1-yl)-4-methoxyquinolin-8-yl) benzonitrile] |
| ≤ 0.05 | COc1c(N2CCC(O)(c3cc(C)cc(C)n3)CC2)cnc2c(-c3ccc(C#N)cc3)cccc12 [Embodiment 231, 4-(3-(4′-hydroxy-4,6-dimethyl-3′,4′,5′,6′-tetrahydro-2′H-[2,4′]bipyridyl-1′-yl)-4-methoxyquinolin-8-yl) benzonitrile] |
| ≤ 0.05 | COc1c(N2CC[C@@H](N3C[C@@H](C)O[C@@H](C)C3)[C@@H](F)C2)cnc2c(-c3ccc(C#N)cc3)cccc12 [Embodiment 233, 4-(3-(4-(2,6-dimethylmorpholino-4-yl)-3-fluoropiperidin-1-yl)-4-methoxyquinolin-8-yl)benzonitrile] |
| ≤ 0.05 | COc1c(N2CCC(O)(c3ccc(C(C)(C)O)cn3)CC2)cnc2c(-c3ccc(C#N)cc3)cccc12 [Embodiment 238, 4-(3-(4-hydroxy-4-(5-(2-hydroxypropan-2-yl)pyridin-2-yl)piperidin-1-yl)-4-methoxyquinolin-8-yl)benzonitrile] |
| 0.1 to 0.5 | COc1c(C2(O)CCN(c3ccc(C(C)(C)O)cn3)CC2)cnc2c(-c3ccc(C#N)cc3)cccc12 [Embodiment 240, 4-(3-(4-hydroxy-5′-(1-hydroxy-1-methyl-ethyl)-3,4,5,6-tetrahydro-2H-[1,2′]bipyridyl-4-yl)4-methoxyquinolin-8-yl)benzonitrile] |
| 0.1 to 0.5 | COc1c(NC(=O)c2ccc(N3C[C@@H](C)O[C@@H](C)C3)nc2)cnc2c(-c3ccc(C#N)cc3)cccc12 [Embodiment 241, N-(8-(4-cyanophenyl)-4-methoxyquinolin-3-yl)-6-(2,6-dimethylmorpholino-4-yl) nicotinamide] |
| ≤ 0.05 | COc1c(C(=O)Nc2ccc(N3C[C@@H](C)O[C@@H](C)C3)cc2)cnc2c(-c3ccc(C#N)cc3)cccc12 [Embodiment 242, 8-(4-cyanophenyl)-N-(4-((2S,6R)-2,6-dimethylmorpholino)phenyl)-4-methoxyquinoline-3-carboxamide] |
| ≤ 0.05 | C[C@@H]1CN(c2ccc(NC(=O)c3cnc4c(-c5ccc(C#N)cc5)cccc4c3C3CC3)cn2)C[C@H](C)O1 [Embodiment 244, 8-(4-cyanophenyl)-4-cyclopropyl-N-(6-((2S,6R)-2,6-dimethylmorpholino)pyridin-3-yl) quinoline-3-carboxamide] |
| ≤ 0.05 | COc1c(N2CCN(C(=O)C3CC3)CC2)cnc2c(-c3ccc(C#N)cc3)cccc12 [Embodiment 248, 4-(3-(4-cyclopropanecarbonylpiperazin-1-yl)-4-methoxyquinolin-8-yl)benzonitrile] |
| 0.1 to 0.5 | COc1c(N2CCN(c3ccc(C(C)(C)O)cn3)CC2=O)cnc2c(-c3ccc(C#N)cc3)cccc12 [Embodiment 252, 4-(3-(4-(5-(2-hydroxypropan-2-yl)pyridin-2-yl)-2-oxopiperazin-1-yl-4-methoxyquinolin-8-yl))benzonitrile] |
| 0.1 to 0.5 | COc1c(N2CCN(c3ccc(C(C)(C)O)cn3)C(=O)C2)cnc2c(-c3ccc(C#N)cc3)cccc12 [Embodiment 253, 4-(3-(4-(5-(2-hydroxypropan-2-yl)pyridin-2-yl)-3-oxopiperazin-1-yl-4-methoxyquinolin-8-yl))benzonitrile] |
| ≤ 0.05 | CC(C)(O)c1ccc(N2CCN(c3cnc4c(-c5ccc(C#N)cc5)cccc4c3C3CC3)C(=O)C2)nc1 [Embodiment 254, 4-(4-cyclopropyl-3-(4-(5-(2-hydroxypropan-2-yl)pyridin-2-yl)-2-oxopiperazin-1-yl)quinolin-8-yl)benzonitrile] |

The remaining lines, values behind:

| SMILES | IC50 [µM] |
| --- | --- |
| CC(C)(O)c1ccc(N2CCN(c3cnc4c(-c5ccc(C#N)cc5)cccc4c3C3CC3)CC2)nc1 [Embodiment 224] | ≤ 0.05 |
| COc1c(N2CCN(c3ccc(C(C)(C)O)cn3)C(C)C2)cnc2c(-c3ccc(C#N)cc3)cccc12 (stereo not drawn) [Embodiment 226] | ≤ 0.05 |
| COc1c(N2CC(N3C[C@@H](C)O[C@@H](C)C3)C2)cnc2c(-c3ccc(C#N)cc3)cccc12 [Embodiment 228, 4-(3-(3-(2,6-dimethylmorpholino-4-yl)azetidin-1-yl)-4-methoxyquinolin-8-yl) benzonitrile] | 0.1 to 0.5 |
| COc1c(N2C3CCC2CC(N2C[C@@H](C)O[C@@H](C)C2)C3)cnc2c(-c3ccc(C#N)cc3)cccc12 (stereo partly drawn) [Embodiment 230, 4-(3-(3-(2,6-dimethylmorpholino-4-yl)-8-azabicyclo[3.2.1]octan-8-yl)-4-methoxyquinolin-8-yl)benzonitrile] | 0.1 to 0.5 |
| COc1c(C2CCC(N3C[C@@H](C)O[C@@H](C)C3)CC2)cnc2c(-c3ccc(C#N)cc3)cccc12 (stereo partly drawn) [Embodiment 232, 4-(3-(4-(2,6-dimethylmorpholino-4-yl)cyclohexyl)-4-methoxyquinolin-8-yl) benzonitrile] | 0.1 to 0.5 |
| COc1c(N2CCC(N3CC(C)OC(C)C3=O)CC2)cnc2c(-c3ccc(C#N)cc3)cccc12 (stereo not drawn) [Embodiment 235, 4-(3-(4-(2,6-dimethyl-3-oxo-morpholino-4-yl)piperidin-1-yl)-4-methoxyquinolin-8-yl) benzonitrile] | ≤ 0.05 |
| CC(C)(O)c1ccc(N2CCN(c3cnc4c(-c5ccc(C#N)cc5)cccc4c3C3CC3)CC2=O)nc1 [Embodiment 236, 4-(4-cyclopropyl-3-(4-(5-(1-hydroxy-1-methyl-ethyl)pyridin-2-yl)-3-oxo-piperazin-1-yl)quinolin-8-yl)benzonitrile] | ≤ 0.05 |
| CC(C)(O)c1ccc(N2CCN(c3cnc4c(-c5ccc(C#N)cc5)cccc4c3C3CC3)CC2(C)O)nc1 (stereo not drawn) [Embodiment 237, 4-(4-cyclopropyl-3-(3-hydroxy-4-(5-(1-hydroxy-1-methyl-ethyl)pyridin-2-yl)-3-methylpiperazin-1-yl)quinolin-8-yl)benzonitrile] | 0.1 to 0.5 |
| C[C@@H]1CN(c2ccc(-c3cnc4c(-c5ccc(C#N)cc5)cccc4c3C3CC3)c(C(=O)O)n2)C[C@H](C)O1 [Embodiment 239, 3-(8-(4-cyanophenyl)-4-cyclopropylquinolin-3-yl)-6-(2,6-dimethylmorpholino-4-yl)pyridin-2-carboxylic acid] | 0.1 to 0.5 |
| COc1c(C(=O)Nc2ccc(N3C[C@@H](C)O[C@@H](C)C3)nc2)cnc2c(-c3ccc(C#N)cc3)cccc12 [Embodiment 243, 8-(4-cyanophenyl)-N-(6-((2S,6R)-2,6-dimethylmorpholino)pyridin-3-yl)-4-methoxyquinoline-3-carboxamide] | ≤ 0.05 |
| CCC(=O)N1[C@H](C)CN(c2ccc(NC(=O)c3cnc4c(-c5ccc(C#N)cc5)cccc4c3OC)cn2)C[C@@H]1C [Embodiment 245, 8-(4-cyanophenyl)-N-(6-((3S,5R)-3,5-dimethyl-4-propionylpiperazin-1-yl)pyridin-3-yl)-4-methoxyquinoline-3-carboxamide] | 0.1 to 0.5 |
| COc1c(N2CCn3c(nnc3C(F)(F)F)C2)cnc2c(-c3ccc(C#N)cc3)cccc12 [Embodiment 247, 4-(4-methoxy-3-(3-trifluoromethyl-5,6-dihydro-8H-[1,2,4]triazolo[4,3-a]pyrazin-7-yl)quinolin-8-yl)benzonitrile] | 0.1 to 0.5 |
| COc1c(N2CCN(S(=O)(=O)C(C)C)CC2)cnc2c(-c3ccc(C#N)cc3)cccc12 [Embodiment 249, 4-(4-methoxy-3-(4-(propane-2-sulfonyl)piperazin-1-yl)-quinolin-8-yl)benzonitrile] | ≤ 0.05 |
| CCC(=O)N1[C@H](C)CN(c2ccc(-c3nc4c(-c5ccc(C#N)cc5)cccc4[nH]3)cn2)C[C@@H]1C [Embodiment 250, 4-(2-(6-(3,5-dimethyl-4-propionylpiperazin-1-yl)pyridin-3-yl)-1H-benzo[d]imidazol-4-yl)benzonitrile] | 0.1 to 0.5 |
| COc1c(-c2ccc(N3CC(C)(C)C(O)C(C)(C)C3)cc2)cnc2c(-c3ccc(C#N)cc3)cccc12 [Embodiment 251] | ≤ 0.05 |
